Laboratory results: patent publication US8598120B2 (Amylin Pharmaceuticals, LLC, priority 2004, dated 2013)

Key:
[1] = Ethanol-induced gastric mucosal injury (gastroprotection); format: in vivo, rats; conditions: for ED50 for the gastroprotective effect: s.c.
Procedure: Thirty min after gavage, each rat was anesthetized with 5% halothane, the stomach excised, opened along the lesser curvature and everted to expose the mucosa. The everted stomachs were gently rinsed with saline and immediately graded for mucosal damage by each of 10 observers blinded to the experimental treatment.
Stomachs were excised and graded for injury 30 min after ethanol gavage, as described above. The result is provided in the next to the last bar of FIG. 11A.
Stomachs were excised and graded for injury 30 min after ethanol gavage, as described above, and blood was taken for plasma glucose measurement. The injury response was also measured in glucose-treated rats coadministered a 3 mg intravenous bolus of AC187 (n=9).

[2] = Pentagastrin-stimulated gastric acid secretion in gastric fistula rats; format: in vivo; conditions: for ED50 for the acid-suppressive effect: s.c.
Procedure: The experiments were performed during the light cycle. The rats, fed rat chow (Teklad L M 485, Madison, Wis.), were fasted for approximately 20 hours before experimentation. They were given water ad libitum until the start of the experiment.
The rats (age 9-14 weeks, body mass 264-395 g) were surgically fitted with double gastric fistulae by the supplier (Zivic Miller, Catalog number SCAO3.00). During laparotomy under halothane anesthesia, a grommet-shaped double lumen plug was sutured into the stomach wall. Two silastic 2.3 mm internal diameter (entry and exit) cannulae connected to the plug and communicating with the gastric lumen were tracked through the abdominal wall, subcutaneously to the interscapular region where they were separately exteriorized. The laparotomy wound was closed with clips, the rat was placed in a heated recovery cage for one day with free access to water. Thereafter, the rats were housed singly with free access to water and rat chow until they were subjected to overnight fasting for experiments which were performed on conscious rats, about 10-15 days after surgery.
Gastric catheters were uncapped and attached to flexible PE240 tubing for injection and sampling. To ensure patency of the catheters, 2-3 mL of saline solution at room temperature was injected and immediately withdrawn from the stomach. This was repeated until flow was easy and the effluent was clean. Gastric acid secretion was measured at 10 min intervals by injecting 5 mL saline and 2 mL air via one catheter, then immediately withdrawing the same via the other catheter. In this way errors due to incomplete aspiration of the small, secreted volume could be minimized. Three mL of each gastric aspirate were titrated to pH 7.0 with 0.01 N sodium hydroxide using a pH meter (Beckman model number PHI34 Fullerton, Calif.). The amount of base required for each titration, corrected for the total volume aspirated, was used to calculate the moles of acid in each sample.

[3] = in vivo; cited from earlier work
[4] = Ghrelin assay (plasma total and active ghrelin); format: in vivo, rats
Procedure: All experiments were performed in the light cycle. Animals were fasted for approximately 20 hours before experimentation. All animals were given free access to water until the start of the experiment. The animals' tails were anesthetized with 20% benzocaine (Hurricaine, Beutlich Pharmaceutical, Waukegan, Ill.), and blood samples were collected from the tail vein. Total and active ghrelin concentrations were measured using Linco RIA kits GHRA-89HK and GHRA-88HK, respectively.
In study 1, HSD rats were subjected to periodic blood sampling from the topically anesthetized tail and ghrelin levels were assayed. […] The blood samples were analyzed for total and active (acylated) ghrelin (Linco).
Blood plasma samples were collected at least at times 0, 10, 20, 30, 60, and 90 min.

[5] = 100 μg, one hour after amylin injection

Q: Which “decrease of gastric injury score” value ([1]; 250 mg intraperitoneal, t=−30 min from gavage) does the source give for `O=C[C@H](O)[C@@H](O)[C@H](O)[C@H](O)CO` [D-glucose] here?
A: 18.5±4.6%

Q: For “Amylin: amylin peptide hormone as summarised from the literature (Table 1, background), species not stated (KCNTATCATQRLANFLVHSSNNFGAILSSTNVGSNTY; Islet amyloid polypeptide; UniProt P10997 34-70, looked up)”, which “rate of acid secretion as % of the basal rate that preceded pentagastrin injection” value [2, 5] is on record?
A: 32%

Q: What about the “reduction of pentagastrin-stimulated secretion of acid” value [2, 5] of the same molecule?
A: 93.4±2.6%

Q: What about the “gastric acid production (FIG. 10A)” value ([2]; injected 40 min after pentagastrin, 0.1-100 μg) of the same molecule?
A: dose-dependently inhibited gastric acid production

Q: What about the “ED50 for the acid-suppressive effect” value [2] of the same molecule?
A: 41 pmol/kg

Q: And the “ED50 for the acid-suppressive effect” value ([2]; ±0.15 log units)?
A: 0.05 μg/rat

Q: What about the “onset of effect in food intake assays” value [3] of the same molecule?
A: ≤ 30 min

Q: And the “time course of effect in food intake assays” value [3]?
A: its effect tapers off after 60 minutes

Q: What about the “reduction of injury score” value ([1]; doses of 0.3 μg and higher) of the same molecule?
A: 67%

Q: And the “ED50 for the gastroprotective effect” value [1]?
A: 31 pmol/kg

Q: What about the “protection of the stomach from mucosal injury (FIG. 11C)” value ([1]; s.c. before ethanol gavage, P<0.05 with doses of 0.1 μg and higher) of the same molecule?
A: dose-dependently protected the stomach from mucosal injury

Q: And the “ED50 for the gastroprotective effect” value ([1]; ±0.40 log units)?
A: 0.036 µg

Q: With “CSNLSTCVLGKLSQELHKLQTYPRTNTGSGTP (listed as Oncorhynchus sp.) [salmon calcitonin]” as the molecule, how does the “time course of effect in food intake assays” value [3] read?
A: delayed effect, with peak levels still maintained at 240 minutes

Q: For “KCNTATCATQRLANFLVRSSNNLGPVLPPTNVGSNTY (listed as Rattus sp.) [rat amylin]”, which “reduction of active ghrelin (FIG. 8A)” value ([4]; 10 μg s.c. 20 min after pentagastrin […], within 1 hour) is on record?
A: ~50%

Q: What about the “plasma ghrelin, amylin alone without pentagastrin (FIG. 8B)” value ([4]; 30 μg/kg s.c., no pentagastrin) of the same molecule?
A: plasma ghrelin was reduced compared to the control

Q: And the “total plasma ghrelin compared to saline control (FIGS. 8B, 8C)” value ([4]; 30 μg/kg s.c., with or without pentagastrin)?
A: reduction in total plasma ghrelin
